Assay results: US9321756B2, “Azole compounds as PIM inhibitors” (priority 2011, dated 2016)
Like-named read-outs stand apart in the source and are kept apart here.

Key:
[1] = target: full length recombinant Pim-1 (Homo sapiens (Human), UniProt P11309); test: Pim enzyme assay (HTRF, phosphorylation of biotinylated-BAD (S112) peptide), Pim-1; format: biochemical
[2] = target: full length recombinant Pim-2 (Homo sapiens (Human), UniProt Q9P1W9); test: Pim enzyme assay (HTRF, phosphorylation of biotinylated-BAD (S112) peptide), Pim-2; format: biochemical; conditions: Pim-2 enzyme assay; read-out: Pim2_IC50
[3] = target: full length recombinant Pim-3 (Homo sapiens (Human), UniProt Q86V86); test: Pim enzyme assay (HTRF, phosphorylation of biotinylated-BAD (S112) peptide), Pim-3; format: biochemical; conditions: Pim-3 enzyme assay; read-out: Pim3 IC50
In short: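 IC50 values were fitted with a 4-parameter logistic model to percent-of-control HTRF signal (Eu anti-phospho-BAD S112 antibody/streptavidin-APC). Reactions used full-length Pim-3 and biotin-BAD (S112) peptide, ran 1 h 30 min at RT (22 °C) in Hepes pH 7.0 buffer with BSA and DTT, and were stopped by 3 mM EDTA.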

[4] = tested on: Pim-1 stably transfected U2OS human osteogenic sarcoma line; test: Pim cell assay U2OS (phospho-BAD normalized against total BAD), Pim-1 transfected; format: cell-based; conditions: Homo sapiens, U2OS
[5] = tested on: Pim-2 stably transfected U2OS human osteogenic sarcoma line; test: Pim cell assay U2OS (phospho-BAD normalized against total BAD), Pim-2 transfected; format: cell-based; conditions: Homo sapiens; U2OS cells, Pim-2 transfected; read-out: U2OS Pim2_Cell_IC50
[6] = Pim-1 enzyme assay, read-out: Pim_1_IC50
[7] = read-out: U2OS Pim1_Cell_IC50, U2OS cells, Pim-1 transfected

Sequence of full length recombinant Pim-1 (P11309 whole entry): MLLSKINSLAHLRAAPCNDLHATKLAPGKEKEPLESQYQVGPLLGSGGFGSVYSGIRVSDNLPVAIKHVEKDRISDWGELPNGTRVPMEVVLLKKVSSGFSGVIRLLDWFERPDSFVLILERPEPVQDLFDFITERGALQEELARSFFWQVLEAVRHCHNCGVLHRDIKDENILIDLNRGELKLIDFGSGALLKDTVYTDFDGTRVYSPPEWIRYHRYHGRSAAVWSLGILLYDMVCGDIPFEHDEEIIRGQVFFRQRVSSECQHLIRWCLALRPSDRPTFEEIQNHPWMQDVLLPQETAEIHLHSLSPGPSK
Sequence of full length recombinant Pim-2 (Q9P1W9 whole entry): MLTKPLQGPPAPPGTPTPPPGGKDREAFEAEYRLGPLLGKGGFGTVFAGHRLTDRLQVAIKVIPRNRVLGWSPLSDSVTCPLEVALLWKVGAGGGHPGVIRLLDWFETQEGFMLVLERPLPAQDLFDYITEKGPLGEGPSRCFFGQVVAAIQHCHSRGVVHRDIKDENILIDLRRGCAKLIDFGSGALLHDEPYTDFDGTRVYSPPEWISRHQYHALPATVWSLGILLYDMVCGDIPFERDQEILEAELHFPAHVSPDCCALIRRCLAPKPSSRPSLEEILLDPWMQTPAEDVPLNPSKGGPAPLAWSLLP

| SMILES | IC50 [1, 6] [nM] | IC50 [2] [nM] | IC50 [3] [nM] | IC50 ([4]; read-out: U2OS Pim1_Cell_IC50) [nM] | IC50 [5] [nM] | IC50 [4, 7] [nM] | IC50 [1] [nM] | IC50 ([1]; read-out: Pim_1_IC50) [nM] |
| --- | --- | --- | --- | --- | --- | --- | --- | --- |
| Nc1nnc(-c2ccc3[nH]cc(-c4nccc(Nc5ccccc5)n4)c3c2)o1 [Example 108, 2-(5-(5-amino-1,3,4-oxadiazol-2-yl)-1H-indol-3-yl)-N-phenyl-4-pyrimidinamine] | 9.41 | 3.1 | 2.07 | 711 | 1410 | – | – | – |
| Nc1nnc(-c2ccc3[nH]cc(-c4cncc(-c5ccccc5)n4)c3c2)o1 [Example 115, 5-(3-(6-phenyl-2-pyrazinyl)-1H-indol-5-yl)-1,3,4-oxadiazol-2-amine] | 9.23 | 14 | 5.36 | 105 | > 31600 | – | – | – |
| Nc1nnc(-c2ccc3[nH]cc(-c4cncc(-c5ccccc5F)n4)c3c2)o1 [Example 116, 5-(3-(6-(2-fluorophenyl)-2-pyrazinyl)-1H-indol-5-yl)-1,3,4-oxadiazol-2-amine] | 15.2 | 19.6 | 7.81 | – | > 31600 | 224 | – | – |
| Nc1nnc(-c2ccc3[nH]cc(-c4nccc(-c5ccccc5Cl)n4)c3c2)o1 [Example 118, 5-(3-(4-(2-chlorophenyl)-2-pyrimidinyl)-1H-indol-5-yl)-1,3,4-oxadiazol-2-amine] | 16.7 | 19.2 | 15.7 | 217 | > 31600 | – | – | – |
| Nc1nnc(-c2ccc3[nH]cc(-c4cncc(-c5cccc(F)c5)n4)c3c2)o1 [Example 119, 5-(3-(6-(3-fluorophenyl)-2-pyrazinyl)-1H-indol-5-yl)-1,3,4-oxadiazol-2-amine] | 6.07 | 10.7 | 2.15 | 85 | > 31600 | – | – | – |
| Nc1nnc(-c2ccc3[nH]cc(-c4cncc(-c5cccc(Cl)c5)n4)c3c2)o1 [Example 120, 5-(3-(6-(3-chlorophenyl)-2-pyrazinyl)-1H-indol-5-yl)-1,3,4-oxadiazol-2-amine] | 9.41 | 22.9 | 4.23 | 242 | > 31600 | – | – | – |
| Cn1cc(-c2cncc(-c3c[nH]c4ccc(-c5nnc(N)o5)cc34)n2)cn1 [Example 121, 5-(3-(6-(1-methyl-1H-pyrazol-4-yl)-2-pyrazinyl)-1H-indol-5-yl)-1,3,4-oxadiazol-2-amine] | 19 | 34.6 | 5.54 | 3140 | > 31600 | – | – | – |
| Nc1nnc(-c2ccc3[nH]cc(-c4nccc(-c5ccccc5)n4)c3c2)o1 [Example 122, 5-(3-(4-phenyl-2-pyrimidinyl)-1H-indol-5-yl)-1,3,4-oxadiazol-2-amine] | 6.85 | 3.87 | 2.4 | – | 831 | 132 | – | – |
| CC(C)Oc1ccc(F)c(-c2c[nH]c3ccc(-c4nnc(N)o4)nc23)c1 [Example 125, 5-(3-(2-fluoro-5-(1-methylethoxy)phenyl)-1H-pyrrolo[3,2-b]pyridin-5-yl)-1,3,4-oxadiazol-2-amine] | 22.8 | 57 | 7.68 | – | 4430 | 109 | – | – |
| CNc1nnc(-c2ccc3[nH]cc(-c4nccc(N5CCC[C@H](N)C5)n4)c3c2)s1 [Example 128, (3S)-1-(2-(5-(5-(methylamino)-1,3,4-thiadiazol-2-yl)-1H-indol-3-yl)-4-pyrimidinyl)-3-piperidinamine] | 2.91 | 1.53 | 0.734 | – | 15900 | 13800 | – | – |
| CNc1nnc(-c2ccc3[nH]cc(-c4ccnc(N5CCOCC5)n4)c3c2)s1 [Example 129, N-methyl-5-(3-(2-(4-morpholinyl)-4-pyrimidinyl)-1H-indol-5-yl)-1,3,4-thiadiazol-2-amine] | 31.3 | 82.4 | 12.3 | – | > 31600 | 982 | – | – |
| Nc1nnc(-c2ccc3[nH]cc(-c4cccc(-c5ccccc5)n4)c3c2)s1 [Example 130, 5-(3-(6-phenyl-2-pyridinyl)-1H-indol-5-yl)-1,3,4-thiadiazol-2-amine] | 39.6 | 39 | 20.5 | 7880 | > 31600 | – | – | – |
| CNc1nnc(-c2ccc3[nH]cc(-c4nccc(N5CCN(C)CC5)n4)c3c2)s1 [Example 132, N-methyl-5-(3-(4-(4-methyl-1-piperazinyl)-2-pyrimidinyl)-1H-indol-5-yl)-1,3,4-thiadiazol-2-amine] | 11 | 33.6 | 3.98 | 1470 | 6910 | – | – | – |
| Nc1nnc(-c2ccc3[nH]cc(-c4ccnc(N5CCOCC5)n4)c3c2)s1 [Example 133, 5-(3-(2-(4-morpholinyl)-4-pyrimidinyl)-1H-indol-5-yl)-1,3,4-thiadiazol-2-amine] | 13.4 | 19.4 | 4 | – | 8060 | 535 | – | – |
| CNc1nnc(-c2ccc3[nH]cc(-c4nccc(N5CCOCC5)n4)c3c2)s1 [Example 134, N-methyl-5-(3-(4-(4-morpholinyl)-2-pyrimidinyl)-1H-indol-5-yl)-1,3,4-thiadiazol-2-amine] | 38 | 16.3 | 12.3 | – | 6110 | 1440 | – | – |
| CNc1nnc(-c2ccc3[nH]cc(-c4nccc(N5CCCCC5)n4)c3c2)s1 [Example 135, N-methyl-5-(3-(4-(1-piperidinyl)-2-pyrimidinyl)-1H-indol-5-yl)-1,3,4-thiadiazol-2-amine] | 86.1 | 59.7 | 32.7 | – | > 31600 | 8440 | – | – |
| Nc1nnc(-c2ccc3[nH]cc(-c4ccccc4F)c3c2)s1 [Example 136, 5-(3-(2-fluorophenyl)-1H-indol-5-yl)-1,3,4-thiadiazol-2-amine] | 67.3 | 60 | 30.9 | – | > 31600 | 3410 | – | – |
| Nc1nnc(-c2ccc3[nH]cc(-c4ccc5nccnc5c4)c3c2)s1 [Example 151, 5-(3-(6-quinoxalinyl)-1H-indol-5-yl)-1,3,4-thiadiazol-2-amine] | 103 | 144 | 17.5 | 925 | > 31600 | – | – | – |
| CC1CCCCN1c1cncc(-c2c[nH]c3ccc(-c4nnc(N)s4)cc23)n1 (stereo not drawn) [Example 153, 5-(3-(6-(2-methyl-1-piperidinyl)-2-pyrazinyl)-1H-indol-5-yl)-1,3,4-thiadiazol-2-amine] | – | 9.74 | 1.7 | 51.9 | 1660 | – | 1.77 | – |
| CCN(CC)c1cncc(-c2c[nH]c3ccc(-c4nnc(N)s4)cc23)n1 [Example 154, 6-(5-(5-amino-1,3,4-thiadiazol-2-yl)-1H-indol-3-yl)-N,N-diethyl-2-pyrazinamine] | 2 | 20 | 1.45 | – | 2300 | 43.4 | – | – |
| Cc1cn(-c2cccc(-c3c[nH]c4ccc(-c5nnc(N)s5)cc34)n2)cn1 [Example 155, 5-(3-(6-(4-methyl-1H-imidazol-1-yl)-2-pyridinyl)-1H-indol-5-yl)-1,3-4-thiadiazol-2-amine] | 4.42 | 2.25 | 0.425 | – | > 31600 | 259 | – | – |
| Nc1nnc(-c2ccc3[nH]cc(-c4cncc(N5CCOCC5)n4)c3c2)s1 [Example 156, 5-(3-(6-(4-morpholinyl)-2-pyrazinyl)-1H-indol-5-yl)-1,3,4-thiadiazol-2-amine] | 5.59 | 12.3 | 4.38 | – | 1900 | 163 | – | – |
| CN(C)c1cncc(-c2c[nH]c3ccc(-c4nnc(N)s4)cc23)n1 [Example 158, 6-(5-(5-amino-1,3,4-thiadiazol-2-yl)-1H-indol-3-yl)-N,N-dimethyl-2-pyrazinamine] | 8.18 | 28.2 | 3.86 | – | 3040 | 133 | – | – |
| CC(C)Oc1cncc(-c2c[nH]c3ccc(-c4nnc(N)s4)cc23)n1 [Example 159, 5-(3-(6-(1-methylethoxy)-2-pyrazinyl)-1H-indol-5-yl)-1,3,4-thiadiazol-2-amine] | – | 16.6 | 3 | – | 2220 | 91.9 | – | 8.2 |
| Nc1nnc(-c2ccc3[nH]cc(-c4cncc(OC5CCCC5)n4)c3c2)s1 [Example 160, 5-(3-(6-(cyclopentyloxy)-2-pyrazinyl)-1H-indol-5-yl)-1,3,4-thiadiazol-2-amine] | 10.5 | 24.6 | 10.7 | – | 6540 | 176 | – | – |
| CC1CCN(c2cncc(-c3c[nH]c4ccc(-c5nnc(N)s5)cc34)n2)CC1 [Example 162, 5-(3-(6-(4-methyl-1-piperidinyl)-2-pyrazinyl)-1H-indol-5-yl)-1,3,4-thiadiazol-2-amine] | 12.7 | 49.4 | 8.54 | 214 | 5680 | – | – | – |
| CCOc1cccc(-c2c[nH]c3ccc(-c4nnc(N)s4)cc23)n1 [Example 164, 5-(3-(6-ethoxy-2-pyridinyl)-1H-indol-5-yl)-1,3,4-thiadiazol-2-amine] | 14.7 | 21.6 | 3.25 | 141 | 3730 | – | – | – |
